# Where “and” joins values, the source holds several entries; their conditions need not be identical. Identical values can stand only once. Entries after “also recorded” stand apart in the source; their conditions may differ.
# Legend:
# [1] = test system: eye muscles; conditions: in vivo
# [2] = test system: glaucoma patients; conditions: human, in vivo
# [3] = test system: primary cultures of spinal cord neurons; conditions: cited from earlier work
# [4] = test system: glaucoma patients; set-up: species or system human; conditions: in vivo
# [5] = test system: brain synaptosome preparations; conditions: cited from earlier work
# [6] = test system: glaucoma patients; conditions: human, in vivo; remark: listed apart in the source
# [7] = test system: eyelid muscles (Riolan's muscle, orbicularis muscle); set-up: species or system human; conditions: in vivo
molecule,measurement,setting,value
COc1ccc(CCN(C)CCCC(C#N)(c2ccc(OC)c(OC)c2)C(C)C)cc1OC (stereo not drawn) [verapamil],therapeutic effect,[1],causes desired therapeutic effect
botulinum toxin,12 week period average reduction of baseline eye pressure,[2],16%
same,% IOP reduction,[2],16.6% and 11.5%
same,% reduction IOP,[2],12.5% and 10% and 7%
same,IOP post Rx during first 3 Rx,[2],26 and 24 and 23
same,IOP reduction,[2],10.5% and 14%
same,reduction of IOP in the treated eye,[2],no reduction of IOP
same,evoked release of glutamate,[3],inhibits the evoked release of glutamate
same,disturbance of lid function / subjective complaints,[4],did not lead to any apparent disturbance of lid function
same,release of acetylcholine and glutamate,[5],inhibits the release of both neurotransmitters
same,Outcome: VF progression,[6],no VF progression; also recorded: minimal VF progression
same,Outcome: progression of diabetic retinopathy,[6],No progression of diabetic retinopathy
same,baseline eye pressure after injection,[7],A reduction of baseline eye pressure was also noted
same,decrease in eye pressure per spike per blink,[7],more than 5 mm Hg
same,lower increase in eye pressure during forceful squeezing of the eyelids compared with control,[7],~50%
same,reduction in eye pressure after forceful closure of the eyes,[7],~35%
same,spike in pressure during blinking measured by LMD,[7],25 mm Hg and 20 mm Hg
COc1cccc2c1C(=O)c1c(O)c3c(c(O)c1C2=O)C[C@@](O)(C(=O)CO)C[C@@H]3O[C@H]1C[C@H](N)[C@H](O)[C@H](C)O1 [doxorubicin],effect on eye muscles,[1],reduce the strength of eye muscles
same,reducing and modulating muscle volume and muscle contraction,[1],have proven to be effective
"CCN(CC)CC(=O)Nc1c(C)cccc1C [lidocaine, Diethylaminoacet-2,6-xylidide]",modulation of muscle action,[1]; iv,"promotes the desired effect, but the effect is short lived"
NCC1(CC(=O)O)CCCCC1 [Gabapentin],therapeutic effect,[1],achieved therapeutic effect

# From patent publication US20120282242A1 (priority 2002, published 2012)
